Experimental data as given in US6545020B1, “Farnesyl Protein transferase inhibitors with in vivo radiosensitizing properties” (Janssen Pharmaceutica, N.V., priority 1998, dated 2003).

Experiments:
U87 = test: Radiosensitization of radioresistant human glioma cell line U87 (surviving fraction after 2 Gy); type: cell-based; details: 2 nM, 48 h prior to irradiation (2 Gy)
Procedure: (§1) Radioresistant human glioma cell lines (SF763, U87, U251) were treated with compound 75, 48 h prior to irradiation (2 Gy). The dose administered was 0.4 nM for U251 and 2 nM for SF763 and U87.

U251 = test: Radiosensitization of radioresistant human glioma cell line U251 (surviving fraction after 2 Gy); type: cell-based; details: 0.4 nM, 48 h prior to irradiation (2 Gy)
Procedure: as §1

[1] = tested on: LoVo human colon tumor cells; test: LoVo human colon tumor xenograft in athymic nude mice, oral treatment with or without single 7 Gy irradiation on day 32; type: in vivo
From the text: Male athymic nude mice weighing approximately 22 to 25 g were inoculated subcutaneously in the inguinal region with 1×10^6 of LoVo human colon tumor cells (LoVo cells) on day 0. After three weeks to allow tumors to become established (diameter approximately 0.5 to 1 cm), treatment was started with solvent or compound 75 via the oral route, and either with or without a single shot irradiation on day 32. Parameters for activity were tumor growth rate and weight of the tumors at day 42.
Compound 75 was dissolved in water and acidified with 1 N HCl solution to pH 2.5 and administered orally (po) as 0.1 ml of compound solution per 10 g mouse body weight twice daily (bid). The dose administered was either 50 or 100 mg compound per kg bodyweight; treatment either preceded irradiation (days 22-32), followed irradiation (days 32-42) or continued throughout the duration of the experiment (days 22-42).
In each arm of the experiment 16 animals were included. The column ‘tumor (g)’ contains the median of the tumor weight of the animals sacrificed at day 42 of the experiment. FIGS. 1 and 2 represent the observed data in graphical form.

SF763 = test: Radiosensitization of radioresistant human glioma cell line SF763 (surviving fraction after 2 Gy); type: cell-based; details: 2 nM, 48 h prior to irradiation (2 Gy)
Procedure: as §1

Cn1cncc1[C@@](N)(c1ccc(Cl)cc1)c1ccc2c(c1)c(-c1cccc(Cl)c1)cc(=O)n2C [Compound 75, (+)-(R)-6-[amino(4-chlorophenyl)(1-methyl-1H-imidazol-5-yl)methyl]-4-(3-chloro-phenyl)-1-methyl-2(1H)-quinolinone]
decrease of surviving fraction after irradiation (U87): about 55%
decrease of surviving fraction after irradiation (U251): 25%
tumor (g), median tumor weight at day 42 ([1]; Group II, 50 mpk po bid, day 22-42, irradiation none): 0.255 g
tumor (g), median tumor weight at day 42 ([1]; Group III, 50 mpk po bid, day 22-32, irradiation none): 0.273 g
tumor (g), median tumor weight at day 42 ([1]; Group IV, 50 mpk po bid, day 32-42, irradiation none): 0.295 g
tumor (g), median tumor weight at day 42 ([1]; Group IX, 50 mpk po bid, day 22-32, irradiation 7 Gy on day 32): 0.156 g
tumor (g), median tumor weight at day 42 ([1]; Group V, 100 mpk po bid, day 22-42, irradiation none): 0.205 g
tumor (g), median tumor weight at day 42 ([1]; Group VI, 100 mpk po bid, day 22-32, irradiation none): 0.234 g
tumor (g), median tumor weight at day 42 ([1]; Group VII, 100 mpk po bid, day 32-42, irradiation none): 0.277 g
tumor (g), median tumor weight at day 42 ([1]; Group VIII, 50 mpk po bid, day 22-42, irradiation 7 Gy on day 32): 0.207 g
tumor (g), median tumor weight at day 42 ([1]; Group X, 50 mpk po bid, day 32-42, irradiation 7 Gy on day 32): 0.259 g
tumor (g), median tumor weight at day 42 ([1]; Group XI, 100 mpk po bid, day 22-42, irradiation 7 Gy on day 32): 0.164 g
tumor (g), median tumor weight at day 42 ([1]; Group XII, 100 mpk po bid, day 22-32, irradiation 7 Gy on day 32): 0.141 g
tumor (g), median tumor weight at day 42 ([1]; Group XIII, 100 mpk po bid, day 32-42, irradiation 7 Gy on day 32): 0.214 g
effect of treatment on the effect of irradiation (statistical analysis) ([1]; both 50 and 100 mpk): potentiates the effect of irradiation
effect of pretreatment and irradiation on tumor weight compared to irradiation alone ([1]; pretreatment, both 50 and 100 mpk, plus irradiation): reduces tumor weight in a statistically significant manner
decrease of surviving fraction after irradiation (SF763): about 55%
